In patent US8188135B2, “Compounds as cannabinoid receptor ligands” (priority 2008, dated 2012):
Where two headings read alike, the source gives them in different places.

Tests used:
human CB2 receptors = target: T1, human CB2 receptors (Homo sapiens, UniProt P34972); assay: human CB2 radioligand binding assay ([3H]CP 55,940 competition); settings: HEK293 membranes, 0.5 nM [3H]CP 55,940
T1 construct: expressed in transfected cells; host or cells: HEK293
Description: (§1) The CB1 and CB2 radioligand binding assays described herein are utilized to ascertain the affinity of compounds of the present application for binding to CB2 relative to CB1 receptors.
HEK293 cells stably expressing human CB2 receptors were grown until a confluent monolayer was formed. Briefly, the cells were harvested and homogenized in TE buffer (50 mM Tris-HCl, 1 mM MgCl2, and 1 mM EDTA) using a polytron for 2×10 second bursts in the presence of protease inhibitors, followed by centrifugation at 45,000×g for 20 minutes. The final membrane pellet was re-homogenized in storage buffer (50 mM Tris-HCl, 1 mM MgCl2, and 1 mM EDTA and 10% sucrose) and frozen at −78° C. until used. Saturation binding reactions were initiated by the addition of membrane preparation (protein concentration of 5 μg/well for human CB2) into wells of a deep well plate containing [^3H]CP 55,940 (120 Ci/mmol, a nonselective CB agonist commercially available from Tocris) in assay buffer (50 mM Tris, 2.5 mM EDTA, 5 mM MgCl2, and 0.5 mg/mL fatty acid free BSA, pH 7.4). After 90 min incubation at 30° C., binding reaction was terminated by the addition of 300 μL/well of cold assay buffer followed by rapid vacuum filtration through a UniFilter-96 GF/C filter plates (pre-soaked in 1 mg/mL BSA for 2 hours). The bound activity was counted in a TopCount using Microscint-20. Saturation experiments were conducted with twelve concentrations of [^3H]CP 55,940 ranging from 0.01 to 8 nM. Competition experiments were conducted with 0.5 nM [^3H]CP 55,940 and five concentrations (0.01 nM to 10 μM) of displacing ligands. The addition of 10 μM unlabeled CP 55,940 (Tocris, Ellisville, Mo.) was used to assess nonspecific binding.

rat CB2 = target: T2, rat CB2 (Rattus norvegicus, UniProt Q9QZN9); assay: rat CB2 radioligand binding assay ([3H]CP 55,940 competition); parameters: expressed in transfected cells; host or cells: HEK293; settings: HEK293 membranes, 0.5 nM [3H]CP 55,940
T2 sequence (Q9QZN9 1-360): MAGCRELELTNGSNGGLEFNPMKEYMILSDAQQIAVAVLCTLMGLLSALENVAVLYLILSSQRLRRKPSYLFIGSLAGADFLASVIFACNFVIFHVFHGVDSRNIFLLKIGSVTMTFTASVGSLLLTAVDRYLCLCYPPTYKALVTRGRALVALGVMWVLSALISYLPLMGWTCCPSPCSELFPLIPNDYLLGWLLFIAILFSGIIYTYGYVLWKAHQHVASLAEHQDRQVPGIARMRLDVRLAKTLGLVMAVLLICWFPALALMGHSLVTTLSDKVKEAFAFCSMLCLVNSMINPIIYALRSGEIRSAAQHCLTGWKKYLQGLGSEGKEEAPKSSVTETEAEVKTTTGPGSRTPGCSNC
Description: as §1
HEK293 cells stably expressing rat CB2 receptors were grown until a confluent monolayer was formed. Briefly, the cells were harvested and homogenized in TE buffer (50 mM Tris-HCl, 1 mM MgCl2, and 1 mM EDTA) using a polytron for 2×10 second bursts in the presence of protease inhibitors, followed by centrifugation at 45,000×g for 20 minutes. The final membrane pellet was re-homogenized in storage buffer (50 mM Tris-HCl, 1 mM MgCl2, and 1 mM EDTA and 10% sucrose) and frozen at −78° C. until used. Saturation binding reactions were initiated by the addition of membrane preparation (protein concentration of 20 μg/well for rat CB2) into wells of a deep well plate containing [^3H]CP 55,940 (120 Ci/mmol, a nonselective CB agonist commercially available from Tocris) in assay buffer (50 mM Tris, 2.5 mM EDTA, 5 mM MgCl2, and 0.5 mg/mL fatty acid free BSA, pH 7.4). After 45 min incubation at 30° C., binding reaction was terminated by the addition of […] of cold assay buffer followed by rapid vacuum filtration through a UniFilter-96 GF/C filter plates (pre-soaked in 1 mg/mL BSA for 2 hours). The bound activity was counted in a TopCount using Microscint-20. Saturation experiments were conducted with twelve concentrations of [^3H]CP 55,940 ranging from 0.01 to 8 nM. Competition experiments were conducted with 0.5 nM [^3H]CP 55,940 and five concentrations of displacing ligands selected from the range of 0.01 nM to 10 μM. The addition of 10 μM unlabeled CP 55,940 (Tocris, Ellisville, Mo.) was used to assess nonspecific binding.

T1 sequence (P34972 whole entry): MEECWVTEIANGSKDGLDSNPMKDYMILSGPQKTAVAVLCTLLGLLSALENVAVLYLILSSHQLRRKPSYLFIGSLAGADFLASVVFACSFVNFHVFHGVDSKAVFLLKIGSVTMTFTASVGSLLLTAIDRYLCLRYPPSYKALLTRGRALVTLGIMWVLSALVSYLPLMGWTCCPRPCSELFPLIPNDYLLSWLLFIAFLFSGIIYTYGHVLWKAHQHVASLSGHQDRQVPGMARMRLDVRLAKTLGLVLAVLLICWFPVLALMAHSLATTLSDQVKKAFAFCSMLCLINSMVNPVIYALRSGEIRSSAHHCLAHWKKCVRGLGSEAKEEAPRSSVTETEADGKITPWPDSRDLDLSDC

Compound | Ki (human CB2 receptors; human CB2 (Ki, nM)) | Ki (rat CB2; rat CB2 (Ki, nM)) | Ki (human CB2 receptors; read-out: human CB2 (Ki)) | Ki (rat CB2; read-out: rat CB2 (Ki))
Cn1c(C(C)(C)C)c/c(=N\C(=O)c2cc(C(F)(F)F)ccc2OCC2(C)COC2)n1C[C@H]1CCCO1 [Example 19, N-{(3E)-5-tert-butyl-1-methyl-2-[(2R)-tetrahydrofuran-2-ylmethyl]-1,2-dihydro-3H-pyrazol-3-ylidene}-2-[3-methyloxetan-3-methoxyl]-5-(trifluoromethyl)benzamide] | > 1000 nM | 323 nM |  | 
CO[C@H]1CCO[C@@H]1COc1ccc(C(F)(F)F)cc1C(=O)/N=c1\cc(C(C)(C)C)n(C)n1C[C@H]1CCCO1 [Example 22] |  |  | > 1000 nM | 424 nM
CN(C[C@@H]1CCCO1)c1ccc(C(F)(F)F)cc1C(=O)/N=c1\cc(C(C)(C)C)n(C)n1C[C@H]1CCCO1 [Example 26, N-{(3E)-5-tert-butyl-1-methyl-2-[(2R)-tetrahydrofuran-2-ylmethyl-]-1,2-dihydro-3H-pyrazol-3-ylidene}-2-{methyl[(2S)-tetrahydrofuran-2-ylmethyl]amino}-5-(trifluoromethyl)benzamide] | > 1000 nM | 343 nM |  | 
CC1=NOC(Cn2/c(=N/C(=O)c3cc(C(F)(F)F)ccc3OC[C@@H]3CCCO3)cc(C(C)(C)C)n2C)C1 (stereo partly drawn) [Example 31, N-{(3E)-5-tert-butyl-1-methyl-2-[(3-methyl-4,5-dihydroisoxazol-5-yl)methyl]-1,2-dihydro-3H-pyrazol-3-ylidene}-2-[(2S)-tetrahydrofuran-2-ylmethoxy]-5-(trifluoromethyl)benzamide] | 239 nM | 63 nM |  | 
Cn1c(C(C)(C)C)c/c(=N\C(=O)c2cc(C(F)(F)F)ccc2OCc2ccccn2)n1C[C@H]1CCCO1 [Example 38, N-{(3E)-5-tert-butyl-1-methyl-2-[(2R)-tetrahydrofuran-2-ylmethyl]-1,2-dihydro-3H-pyrazol-3-ylidene}-2-(pyridin-2-ylmethoxy)-5-(trifluoromethyl)benzamide] |  | 26 nM | > 1000 nM | 
C[C@H](c1ccccc1)N1C[C@@H](COc2ccc(C(F)(F)F)cc2C(=O)/N=c2\cc(C(C)(C)C)n(C)n2C[C@H]2CCCO2)OC1=O [Example 44, N-{(3E)-5-tert-butyl-1-methyl-2-[(2R)-tetrahydrofuran-2-ylmethyl]-1,2-dihydro-3H-pyrazol-3-ylidene}-2-({(5 S)-2-oxo-3-[(1R)-1-phenylethyl]-1,3-oxazolidin-5-yl}methoxy)-5-(trifluoromethyl)benzamide] | > 1000 nM | 408 nM |  | 
Cn1c(C(C)(C)C)c/c(=N\C(=O)c2cc(C(F)(F)F)ccc2OCCN2CCNC2=O)n1C[C@H]1CCCO1 [Example 48, N-{(3E)-5-tert-butyl-1-methyl-2-[(2R)-tetrahydrofuran-2-ylmethyl]-1,2-dihydro-3H-pyrazol-3-ylidene}-2-[2-(2-oxoimidazolidin-1-yl)ethoxy]-5-(trifluoromethyl)benzamide] |  | 53 nM | 251 nM | 
Cn1c(C(C)(C)C)c/c(=N\C(=O)c2cc(C(F)(F)F)ccc2OCC2CN(S(C)(=O)=O)C2)n1C[C@H]1CCCO1 [Example 54, N-{(3E)-5-tert-butyl-1-methyl-2-[(2R)-tetrahydrofuran-2-ylmethyl]-1,2-dihydro-3H-pyrazol-3-ylidene}-2-{[1-(methylsulfonyl)azetidin-3-yl]methoxy}-5-(trifluoromethyl)benzamide] |  | 71 nM | 192 nM | 
Cn1c(C(C)(C)C)c/c(=N\C(=O)c2cc(C(F)(F)F)ccc2OCC(C)(C)OCc2ccccc2)n1C[C@H]1CCCO1 [Example 55, 2-[2-(benzyloxy)-2-methylpropoxy]-N-{(3E)-5-tert-butyl-1-methyl-2-[(2R)-tetrahydrofuran-2-ylmethyl]-1,2-dihydro-3H-pyrazol-3-ylidene}-5-(trifluoromethyl)benzamide] | > 1000 nM | 458 nM |  | 
CN1CCC[C@H]1COc1ccc(C(F)(F)F)cc1C(=O)/N=c1\ccc(C(C)(C)C)cn1C[C@H]1CCCO1 [Example 59, N-[(2E)-5-tert-butyl-1-[(2R)-tetrahydrofuran-2-ylmethyl]pyridin-2(1H)-ylidene]-2-{[(2S)-1-methylpyrrolidin-2-yl]methoxy}-5-(trifluoromethyl)benzamide] | 294 nM | 69 nM |  | 
Cn1c(C(C)(C)C)c/c(=N\C(=O)c2cc(C(F)(F)F)ccc2OC[C@@H]2CCCN2S(C)(=O)=O)n1C[C@H]1CCCO1 [Example 61, N-{(3E)-5-tert-butyl-1-methyl-2-[(2R)-tetrahydrofuran-2-ylmethyl]-1,2-dihydro-3 H-pyrazol-3-ylidene}-2-{[(2S)-1-(methylsulfonyl)pyrrolidin-2-yl]methoxy}-5-(trifluoromethyl)benzamide] | > 1000 nM | 433 nM |  | 
CSC(C)(C)COc1ccc(C(F)(F)F)cc1C(=O)/N=c1\cc(C(C)(C)C)n(C)n1C[C@H]1CCCO1 [Example 64, N-{(3E)-5-tert-butyl-1-methyl-2-[(2R)-tetrahydrofuran-2-ylmethyl]-1,2-dihydro-3H-pyrazol-3-ylidene}-2-[2-methyl-2-(methylthio)propoxy]-5-(trifluoromethyl)benzamide] |  |  | 328 nM | 114 nM
Cn1c(C(C)(C)C)c/c(=N\C(=O)c2cc(C(F)(F)F)ccc2OCC(C)(C)S(C)(=O)=O)n1C[C@H]1CCCO1 [Example 65, N-{(3E)-5-tert-butyl-1-methyl-2-[(2R)-tetrahydrofuran-2-ylmethyl]-1,2-dihydro-3H-pyrazol-3-ylidene}-2-[2-methyl-2-(methylsulfonyl)propoxy]-5-(trifluoromethyl)benzamide] |  |  | > 1000 nM | > 1000 nM
Cn1c(C(C)(C)C)c/c(=N\C(=O)c2cc(C(F)(F)F)ccc2OC[C@@H]2CCN2S(C)(=O)=O)n1C[C@H]1CCCO1 [Example 67, N-{(3E)-5-tert-butyl-1-methyl-2-[(2R)-tetrahydrofuran-2-ylmethyl]-1,2-dihydro-3H-pyrazol-3-ylidene}-2-{[(2S)-1-(methylsulfonyl)azetidin-2-yl]methoxy}-5-(trifluoromethyl)benzamide] | > 1000 nM | 70 nM |  | 
CN1CCC[C@H]1COc1ccc(C(F)(F)F)cc1C(=O)/N=C1\OC(C(C)(C)C)CN1C[C@H]1CCCO1 (stereo partly drawn) [Example 73, N-{(2Z)-5-tert-butyl-3-[(2R)-tetrahydrofuran-2-ylmethyl]-1,3-oxazolidin-2-ylidene}-2-{[(2S)-1-methylpyrrolidin-2-yl]methoxy}-5-(trifluoromethyl)benzamide] |  |  | 291 nM | 230 nM
C/C(COc1ccc(C(F)(F)F)cc1C(=O)/N=c1\cc(C(C)(C)C)n(C)n1C[C@H]1CCCO1)=N\OC1CCCCO1 (stereo partly shown) [Example 79] |  |  | > 1000 nM | 128 nM
Cn1c(C(C)(C)C)c/c(=N\C(=O)c2cc(C(F)(F)F)ccc2OCC2CCSCC2)n1C[C@H]1CCCO1 [Example 80, N-{(3E)-5-tert-butyl-1-methyl-2-[(2R)-tetrahydrofuran-2-ylmethyl]-1,2-dihydro-3 H-pyrazol-3-ylidene}-2-(tetrahydro-2H-thiopyran-4-ylmethoxy)-5-(trifluoromethyl)benzamide] |  | 75 nM | 126 nM | 
